From the NIST ThermoML archive (doi:10.1016/j.fluid.2010.10.003)

What was measured:
[1] = 298.15 K, 101.33 kPa, Liquid; for viscosity: Capillary tube (Ostwald / Ubbelohde) method; for mass density: Vibrating tube method
[2] = refractive index (Na D-line) (dimensionless); conditions: 298.15 K; 101.33 kPa; Liquid; Standard Abbe refractometry
[3] = refractive index (Na D-line) (dimensionless); xn = mol fraction of the nth substance listed; conditions: 298.15 K, 101 kPa, Liquid, Standard Abbe refractometry
[4] = xn = mol fraction of the nth substance listed; conditions: 298.15 K, 101 kPa, Liquid; for viscosity: Capillary tube (Ostwald / Ubbelohde) method; for mass density: Vibrating tube method

CC(=O)OC(C)C [1-methylethyl ethanoate]
Conditions | mass density [kg/m3] | refractive index | viscosity [mPa·s]
[1] | 866.21 | – | 0.481
[2] | – | 1.3748 | –

CC(=O)OC(C)C [1-methylethyl ethanoate] + CCCC[n+]1ccn(C)c1.O=S(=O)([N-]S(=O)(=O)C(F)(F)F)C(F)(F)F
Conditions | mass density, [4] [kg/m3] | refractive index, [3] | viscosity, [4] [mPa·s]
x1 = 0.0514 | 1425.08 | 1.42609 | 44.31
x1 = 0.1096 | 1411.17 | 1.42501 | 38.56
x1 = 0.1554 | 1399.42 | 1.42412 | 33.87
x1 = 0.1972 | 1388.1 | 1.42326 | 30.34
x1 = 0.2961 | 1358.2 | 1.42092 | 22.58
x1 = 0.4241 | 1312.34 | 1.41733 | 14.46
x1 = 0.5168 | 1272.49 | 1.4142 | 10.07
x1 = 0.5998 | 1230.54 | 1.4107 | 6.918
x1 = 0.7017 | 1168.62 | 1.40538 | 4.356
x1 = 0.7981 | 1095.44 | 1.39882 | 2.363
x1 = 0.8918 | 1005.35 | 1.39016 | 1.41

CCCC[n+]1ccn(C)c1.O=S(=O)([N-]S(=O)(=O)C(F)(F)F)C(F)(F)F + CC(C)O
Conditions | mass density, [4] [kg/m3] | refractive index, [3] | viscosity, [4] [mPa·s]
x2 = 0.0515 | 1427.23 | 1.42621 | 45.44
x2 = 0.0962 | 1418.52 | 1.42549 | 41.2
x2 = 0.1921 | 1397.79 | 1.42385 | 33.45
x2 = 0.3213 | 1363.98 | 1.42124 | 24.5
x2 = 0.3896 | 1342.5 | 1.41962 | 20.46
x2 = 0.4869 | 1306.05 | 1.41685 | 15.84
x2 = 0.5173 | 1292.91 | 1.41578 | 14.67
x2 = 0.6074 | 1247.91 | 1.4124 | 11.22
x2 = 0.6943 | 1192.86 | 1.40818 | 8.545
x2 = 0.7996 | 1102.82 | 1.40129 | 5.859
x2 = 0.8995 | 978.52 | 1.39152 | 3.898

CCCC[n+]1ccn(C)c1.O=S(=O)([N-]S(=O)(=O)C(F)(F)F)C(F)(F)F
Conditions | mass density [kg/m3] | refractive index | viscosity [mPa·s]
[1] | 1436.58 | – | 50.68
[2] | – | 1.42692 | –

CC(C)O [propan-2-ol]
Conditions | mass density [kg/m3] | refractive index | viscosity [mPa·s]
[1] | 780.88 | – | 2.073
[2] | – | 1.37502 | –
